Drawing on US9474790B2, “Stable, protracted GLP-1/glucagon receptor co-agonists for medical use” (Novo Nordisk A/S, priority 2013, dated 2016), this text covers EC50 and IC50 for 4 compounds.

In assay [1] the target is T1, human GLP-1 receptor (Homo sapiens, UniProt P43220).
T1 construct: expressed in transfected cells; host or cells: BHK cells (parent BHKTS13), clone FCW467-12A/KZ10-1, with CRE luciferase
The assay can be described thus: GLP-1 receptor potency, CRE luciferase reporter gene assay in BHK cells. It counts as cell-based. The following applies: BHK cells expressing human GLP-1 receptor, read-out: EC50 GLP-1R. In short, it runs like this: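 BHK cells stably expressing human GLP-1 receptor with CRE-luciferase reporter, 5×10EE3 cells/well in phenol red-free DMEM with 10 mM Hepes, 2% ovalbumin, 0.2% Pluronic F-68. Compounds at final 1×10EE-6 to 1×10EE-13 M, 3 h at 37° C; steadylite luminescence; EC50 by four-parameter fit, in pM.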

Assay [2] concerns the target T1, human GLP-1 receptor. In words: GLP-1 receptor binding, 125I-GLP-1 displacement SPA on isolated membranes. The following applies: displacement of 125I-GLP-1 from membranes; read-out: IC50 GLP-1R. The procedure:
The purpose of this assay was to test the in vitro receptor binding activity of the glucagon derivatives of the invention. The receptor binding is a measure of affinity of a compound for the human GLP-1 receptor.
The receptor binding of each compound to the human GLP-1 receptor was measured in a displacement binding assay. In this type of assay a labelled ligand (in this case 125I-GLP-1) is bound to the receptor. Each derivative was added in a series of concentrations to isolated membranes containing the human GLP-1 receptor and displacement of the labelled ligand was monitored. The receptor binding was reported as the concentration at which half of the labelled ligand was displaced from the receptor, the IC50 value.
In order to test the binding of the derivatives to albumin, the assay may be performed in a very low concentration of serum albumin (max. 0.001% final assay concentration) as well as in the presence of a higher concentration of serum albumin (2.0% final assay concentration). An increase of the IC50 value, in the presence of serum albumin indicates an affinity to serum albumin and represents a method to predict a protracted pharmacokinetic profile of the test substance in animal models.
The following chemicals were used in the assay: DMEM w/o phenol red (Gibco 11880-028), Pen/strep (Invitrogen 15140-122), G418 (Invitrogen 10131-027), 1 M Hepes (Gibco 15630), EDTA (Invitrogen 15575-038), PBS (Invitrogen 14190-094), fetal calf serum (Invitrogen 16140-071), EGTA, MgCl2 (Merck 1.05832.1000), Tween 20 (Amresco 0850C335), SPA particles (wheat germ agglutinin (WGA) SPA beads, Perkin Elmer RPNQ0001), [125I]-GLP-1]-(7-36)NH2 (produced in-house), OptiPlate™-96 (Perkin Elmer).
Buffer 1 consisted of 20 mM Na-HEPES plus 10 mM EDTA and pH was adjusted to 7.4.
Buffer 2 consisted of 20 mM Na-HEPES plus 0.1 mM EDTA and pH was adjusted to 7.4.
Assay buffer consisted of 50 mM HEPES supplemented with 5 mM EGTA, 5 mM MgCl2, 0.005% Tween 20 and pH was adjusted to 7.4.
The cells used in this assay (clone FCW467-12A) were BHK cells with BHKTS13 as a parent cell line. The cells express the human GLP-1 receptor.
The cells were grown at 5% CO2 in DMEM, 10% fetal calf serum, 1% Pen/Strep (Penicillin/Streptomycin) and 1.0 mg/ml of the selection marker G418. To make a membrane preparation the cells were grown to approximately 80% confluence. The cells were washed twice in phosphate-buffered saline and harvested. The cells were pelleted using a brief centrifugation and the cell pellet was kept on ice. The cell pellet was homogenised with ULTRA-THURRAX dispersing instrument for 20-30 sec in a suitable amount of buffer 1 (e.g. 10 ml). The homogenate was centrifuged for 15 min. The pellet was re-suspended (homogenised) in 10 ml buffer 2 and centrifuged. This step was repeated once more. The resulting pellet was re-suspended in buffer 2 and the protein concentration was determined. The membranes were aliquoted and stored at minus 80° C.
1. For the receptor binding assay, 50 μl of the assay buffer was added to each well of an assay plate.
2. Test compounds were serially diluted to give the following concentrations: 8×10EE-7 M, 8×10EE-8 M, 8×10EE-9 M, 8×10EE-10 M, 8×10EE-11 M, 8×10EE-12 M and 8×10EE-13 M. Twenty-five μl were added to appropriate wells in the assay plate.
3. Cell membrane aliquots were thawed and diluted to their working concentration. Fifty μl were added to each well in the assay plate.
4. WGA SPA beads were suspended in assay buffer at 20 mg/ml. The suspension was diluted to 10 mg/ml in assay buffer just prior to addition to the assay plate. Fifty μl were added to each well in the assay plate.
5. The incubation was started by adding 25 μl of 480 pM solution of [125I]-GLP-1]-(7-36)NH2 to each well of the assay plate. A 25 μl aliquot was reserved for measuring total counts/well.
6. The assay plate was incubated for 2 h at 30° C.
7. The assay plate was centrifuged for 10 min.
8. The assay plate was read in a Perkin Elmer TopCount NXT instrument. […]

Numbered stars: 1 amine (or outer) side, 2 acyl side, 3 side chain; on linkers, the order of the positions; unused ones are H or OH. Square brackets hold non-standard residues; d marks the D form. Side chains are listed from the residue outwards. Peptide text beside a SMILES is read from it. * marks the point of attachment. C18 diacid = O=C(O)CCCCCCCCCCCCCCCCC(=O)*; γGlu = O=C(O)[C@H](CCC(=O)[*:2])N[*:1]; AEEA = NCCOCCOCC(=O)O; Aib = CC(C)(N)C(=O)O

T1 sequence (P43220 24-463): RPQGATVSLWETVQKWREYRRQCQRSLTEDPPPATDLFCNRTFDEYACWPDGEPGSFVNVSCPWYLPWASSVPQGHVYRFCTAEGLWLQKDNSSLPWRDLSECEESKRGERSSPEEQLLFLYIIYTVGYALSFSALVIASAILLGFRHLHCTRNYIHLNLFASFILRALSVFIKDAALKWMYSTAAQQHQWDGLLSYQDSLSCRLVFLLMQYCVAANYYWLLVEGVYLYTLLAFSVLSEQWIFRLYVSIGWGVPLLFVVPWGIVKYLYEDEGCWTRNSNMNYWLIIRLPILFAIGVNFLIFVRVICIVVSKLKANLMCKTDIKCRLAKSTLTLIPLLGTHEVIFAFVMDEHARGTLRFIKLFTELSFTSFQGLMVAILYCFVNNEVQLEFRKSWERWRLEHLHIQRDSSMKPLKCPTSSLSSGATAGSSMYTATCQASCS

The term EC50 denotes the concentration needed to bring the measured effect to its halfway point. In general, IC50 refers to the concentration that inhibits the measured activity by half. For `CC(C)C[C@H](NC(=O)[C@H](Cc1ccc(O)cc1)NC(=O)[C@H](CCCCN)NC(=O)[C@H](CO)NC(=O)[C@H](CC(C)C)NC(=O)[C@H](CC(=O)O)NC(=O)[C@H](CO)NC(=O)[C@@H](NC(=O)[C@H](Cc1ccccc1)NC(=O)[C@@H](NC(=O)CNC(=O)[C@H](CCC(N)=O)NC(=O)C(C)(C)NC(=O)[C@@H](N)Cc1c[nH]cn1)[C@@H](C)O)[C@@H](C)O)C(=O)N[C@@H](CCC(=O)O)C(=O)N[C@@H](CO)C(=O)N[C@@H](CCCNC(=N)N)C(=O)N[C@@H](CCCNC(=N)N)C(=O)N[C@@H](C)C(=O)N[C@@H](CCCNC(=N)N)C(=O)N[C@@H](CC(=O)O)C(=O)N[C@@H](Cc1ccccc1)C(=O)N[C@H](C(=O)N[C@@H](CCC(N)=O)C(=O)N[C@@H](Cc1c[nH]c2ccccc12)C(=O)N[C@@H](CC(C)C)C(=O)N[C@@H](CC(C)C)C(=O)N[C@@H](CCCCNC(=O)COCCOCCNC(=O)COCCOCCNC(=O)CC[C@H](NC(=O)CC[C@H](NC(=O)CC[C@H](NC(=O)CCCCCCCCCCCCCCCCC(=O)O)C(=O)O)C(=O)O)C(=O)O)C(=O)N[C@H](C(N)=O)[C@@H](C)O)C(C)C` [Example 57, N^ε28-[2-[2-[2-[(2-[2-[2-[[(4S)-4-carboxy-4-[[(4S)-4-carboxy-4-[[(4S)-4-carboxy-4-(17-carboxyheptadecanoylamino)butanoyl]amino]butanoyl]amino]butanoyl]amino]ethoxy]ethoxy]acetyl]amino]ethoxy]ethoxy]acetyl]-[Aib2,Leu10,Glu15,Arg20,Leu27,Lys28]-Glucagon amide] (H-H[Aib]QGTFTSDLSKYLESRRARDFVQWLLK([AEEA-AEEA-γGlu-γGlu-γGlu-C18 diacid])T-NH2; N-terminus assumed), the EC50 at human GLP-1 receptor [1] worked out at 0.003 nM. Also, the IC50 at human GLP-1 receptor [2] was 0.2 nM.

`CC(C)C[C@H](NC(=O)[C@H](Cc1ccc(O)cc1)NC(=O)[C@H](CCCNC(=N)N)NC(=O)[C@H](CO)NC(=O)[C@H](CC(C)C)NC(=O)[C@H](CC(=O)O)NC(=O)[C@H](CO)NC(=O)[C@@H](NC(=O)[C@H](Cc1ccccc1)NC(=O)[C@@H](NC(=O)CNC(=O)[C@H](CCC(N)=O)NC(=O)C(C)(C)NC(=O)[C@@H](N)Cc1c[nH]cn1)[C@@H](C)O)[C@@H](C)O)C(=O)N[C@@H](CC(=O)O)C(=O)N[C@@H](C)C(=O)N[C@@H](CCCNC(=N)N)C(=O)N[C@@H](CCCNC(=N)N)C(=O)N[C@@H](C)C(=O)N[C@@H](CCC(N)=O)C(=O)N[C@@H](CC(=O)O)C(=O)N[C@@H](Cc1ccccc1)C(=O)N[C@H](C(=O)N[C@@H](CCC(N)=O)C(=O)N[C@@H](Cc1c[nH]c2ccccc12)C(=O)N[C@@H](CC(C)C)C(=O)N[C@@H](CC(C)C)C(=O)N[C@@H](CCCCNC(=O)COCCOCCNC(=O)COCCOCCNC(=O)CC[C@H](NC(=O)CC[C@H](NC(=O)CC[C@H](NC(=O)CCCCCCCCCCCCCCCCC(=O)O)C(=O)O)C(=O)O)C(=O)O)C(=O)N[C@H](C(N)=O)[C@@H](C)O)C(C)C` [Example 64, N^ε28-[2-[2-[2-[[2-[2-[2-[[(4S)-4-carboxy-4-[[(4S)-4-carboxy-4-[[(4S)-4-carboxy-4-(17-carboxyheptadecanoylamino)butanoyl]amino]butanoyl]amino]butanoyl]amino]ethoxy]ethoxy]acetyl]amino]ethoxy]ethoxy]acetyl]-[Aib2,Leu10,Arg12,Ala16,Leu27,Lys28]-Glucagon amide] (H-H[Aib]QGTFTSDLSRYLDARRAQDFVQWLLK([AEEA-AEEA-γGlu-γGlu-γGlu-C18 diacid])T-NH2; N-terminus assumed): the EC50 on human GLP-1 receptor [1] came out at 0.003 nM. At human GLP-1 receptor [2], the IC50 was found to be 0.9 nM.

As for `CC(C)C[C@H](NC(=O)[C@H](Cc1ccc(O)cc1)NC(=O)[C@H](CCCNC(=N)N)NC(=O)[C@H](CO)NC(=O)[C@@H](NC(=O)[C@H](CC(=O)O)NC(=O)[C@H](CO)NC(=O)[C@@H](NC(=O)[C@H](Cc1ccccc1)NC(=O)[C@@H](NC(=O)CNC(=O)[C@H](CCC(N)=O)NC(=O)C(C)(C)NC(=O)[C@@H](N)Cc1c[nH]cn1)[C@@H](C)O)[C@@H](C)O)C(C)C)C(=O)N[C@@H](CC(=O)O)C(=O)N[C@@H](C)C(=O)N[C@@H](CCCNC(=N)N)C(=O)N[C@@H](CCCNC(=N)N)C(=O)N[C@@H](C)C(=O)N[C@@H](CCC(N)=O)C(=O)N[C@@H](CC(=O)O)C(=O)N[C@@H](Cc1ccccc1)C(=O)N[C@H](C(=O)N[C@@H](CCC(N)=O)C(=O)N[C@@H](Cc1c[nH]c2ccccc12)C(=O)N[C@@H](CC(C)C)C(=O)N[C@@H](CC(C)C)C(=O)N[C@@H](CCCCNC(=O)COCCOCCNC(=O)COCCOCCNC(=O)CC[C@H](NC(=O)CC[C@H](NC(=O)CC[C@H](NC(=O)CCCCCCCCCCCCCCCCC(=O)O)C(=O)O)C(=O)O)C(=O)O)C(=O)N[C@H](C(N)=O)[C@@H](C)O)C(C)C` [Example 72, N^ε28-[2-[2-[2-[(2-[2-[2-[[(4S)-4-carboxy-4-[[(4S)-4-carboxy-4-[[(4S)-4-carboxy-4-(17-carboxyheptadecanoylamino)butanoyl]amino]butanoyl]amino]butanoyl]amino]ethoxy]ethoxy]acetyl]amino]ethoxy]ethoxy]acetyl]-[Aib2,Val10,Arg12,Ala16,Leu27,Lys28]-Glucagon amide] (H-H[Aib]QGTFTSDVSRYLDARRAQDFVQWLLK([AEEA-AEEA-γGlu-γGlu-γGlu-C18 diacid])T-NH2), the EC50 on human GLP-1 receptor [1] was determined as 0.003 nM. Further, the IC50 at human GLP-1 receptor [2] was determined as 0.5 nM.

As to `CC(C)C[C@H](NC(=O)[C@H](CC(=O)O)NC(=O)[C@H](CC(C)C)NC(=O)[C@H](Cc1ccc(O)cc1)NC(=O)[C@H](CCCNC(=N)N)NC(=O)[C@H](CO)NC(=O)[C@@H](NC(=O)[C@H](CC(=O)O)NC(=O)[C@H](CO)NC(=O)[C@@H](NC(=O)[C@H](Cc1ccccc1)NC(=O)[C@@H](NC(=O)CNC(=O)[C@H](CCC(N)=O)NC(=O)C(C)(C)NC(=O)[C@@H](N)Cc1c[nH]cn1)[C@@H](C)O)[C@@H](C)O)C(C)C)C(=O)N[C@@H](CCCNC(=N)N)C(=O)N[C@@H](CCCNC(=N)N)C(=O)N[C@@H](C)C(=O)N[C@@H](CCC(N)=O)C(=O)N[C@@H](CC(=O)O)C(=O)N[C@@H](Cc1ccccc1)C(=O)N[C@H](C(=O)N[C@@H](CCC(N)=O)C(=O)N[C@@H](Cc1c[nH]c2ccccc12)C(=O)N[C@@H](CC(C)C)C(=O)N[C@@H](CC(C)C)C(=O)N[C@@H](CCCCNC(=O)COCCOCCNC(=O)COCCOCCNC(=O)CC[C@H](NC(=O)CC[C@H](NC(=O)CC[C@H](NC(=O)CCCCCCCCCCCCCCCCC(=O)O)C(=O)O)C(=O)O)C(=O)O)C(=O)N[C@H](C(N)=O)[C@@H](C)O)C(C)C` [Example 73, N^ε28-[2-[2-[2-[[2-[2-[2-[[(4S)-4-carboxy-4-[[(4S)-4-carboxy-4-[[(4S)-4-carboxy-4-(17-carboxyheptadecanoylamino)butanoyl]amino]butanoyl]amino]butanoyl]amino]ethoxy]ethoxy]acetyl]amino]ethoxy]ethoxy]acetyl]-[Aib2,Val10,Arg12,Leu16,Leu27,Lys28]-Glucagon amide] (H-H[Aib]QGTFTSDVSRYLDLRRAQDFVQWLLK([AEEA-AEEA-γGlu-γGlu-γGlu-C18 diacid])T-NH2), the EC50 at human GLP-1 receptor [1] was determined as 0.005 nM. The IC50 on human GLP-1 receptor [2] was determined as 1.5 nM.
